Laboratory results taken from PMC10619133, “The catechol moiety of obafluorin is essential for antibacterial activity” (RSC Chemical Biology, 2023).
Values after ≈ are worked out from the molar mass of the structure shown. “Also recorded” adds a separate entry of the source. Like-named read-outs stand apart in the source and are kept apart here.

Assays:
S. aureus = experiment: Bioassay of control antibiotics with and without additional Fe3+; format: cell-based
Method: (§1) The method was the same as for the antibacterial MIC assays described above, with the following modifications: for excess iron, Fe(NO3)3·9H2O stock (400 mM) was added to give a final concentration of 1.5 or 2.0 mM; for iron depletion, bipy stock (1 M) was added to give a final concentration of 150 μM. For MRSA, 1 was further diluted to 0.5 0.25 and 0.125 μg mL^−1 due to a decrease in MIC under excess iron conditions. The general effect of excess iron on the activity of alternative antibiotics was determined by performing a similar serial dilution of carbenicillin, kanamycin, streptomycin, nitrofurantoin and chloramphenicol in the presence of Fe^3+.

E. coli 25922 = experiment: Spot-on-lawn MIC bioassay; format: cell-based, E. coli ATCC 25922; conditions: for lowest concentration which gave an inhibition zone: - Fe3+; for MIC: Escherichia coli, 25922, spot-on-lawn
Method: (§2) Indicator strains were grown for 16–18 h in LB (5 mL) by inoculation from a single colony. An aliquot of the resulting culture (500 μL) was then used to inoculate LB (50 mL in 250 mL Erlenmeyer flasks), followed by orbital shaking at 250 rpm until they reached an OD600 of 0.3–0.4. These cultures were then diluted 1 : 10 with molten soft nutrient agar (SNA), before pouring into appropriately sized Petri dishes to set. Serial dilutions of the test compounds (from 256 μg mL^−1 to 1 μg mL^−1 plus an additional sample at 1000 μg mL^−1) were prepared in acetonitrile (ACN), and 4 μL of each sample was applied directly onto the SNA surface. Kanamycin (50 μg mL^−1), apramycin (50 μg mL^−1) or aureobasidin A (0.2 μg mL^−1) were used as positive controls, as appropriate, and ACN or water (4 μL) were used as negative controls. […] Experiments were carried out in at least triplicate for each strain.
as §1

EcThrRS = biological target: T1, EcThrRS (Escherichia coli, UniProt P0A8M3); experiment: Aminoacylation assay; format: biochemical, E. coli; conditions: for concentration at which complete inhibition was observed / IC50: enzyme 10 nM; for IC50: 10 min preincubation with compound; for fold less potent than 1: ratio of IC50 values
T1 construct: His6 (N); made in house; host or cells: E. coli NiCo21(DE3)
T1 sequence (P0A8M3 whole entry): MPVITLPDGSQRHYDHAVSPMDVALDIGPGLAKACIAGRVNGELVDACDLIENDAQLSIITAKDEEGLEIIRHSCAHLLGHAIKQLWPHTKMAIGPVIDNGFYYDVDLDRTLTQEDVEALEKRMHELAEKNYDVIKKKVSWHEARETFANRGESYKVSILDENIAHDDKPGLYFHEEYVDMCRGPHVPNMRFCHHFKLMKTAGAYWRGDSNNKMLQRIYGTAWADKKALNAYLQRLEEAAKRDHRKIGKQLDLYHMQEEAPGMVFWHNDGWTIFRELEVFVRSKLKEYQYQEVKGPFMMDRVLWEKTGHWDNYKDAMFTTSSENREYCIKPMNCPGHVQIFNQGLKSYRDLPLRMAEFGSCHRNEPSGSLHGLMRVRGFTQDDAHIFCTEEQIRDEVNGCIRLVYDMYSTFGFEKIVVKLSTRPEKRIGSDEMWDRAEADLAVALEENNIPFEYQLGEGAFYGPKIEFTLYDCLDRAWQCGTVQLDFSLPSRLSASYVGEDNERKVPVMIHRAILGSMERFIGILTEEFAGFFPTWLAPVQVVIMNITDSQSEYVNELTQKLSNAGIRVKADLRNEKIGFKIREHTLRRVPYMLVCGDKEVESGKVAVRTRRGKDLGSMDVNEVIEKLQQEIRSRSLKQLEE
Method: (§3) To measure the effects of 1–4 on ThrRS canonical tRNA charging activity, an assay modified from that reported by Ruan et al.[53] was used, where active enzyme was incubated with its necessary substrates and its activity measured using ^14C labeled Thr and a liquid scintillation counter. Purified ThrRS protein (10 nM) was pre-incubated with varying concentrations of compounds 1–4 or ACN for 10 min. After pre-incubation, ThrRS samples were added to a master reaction mixture with the final component concentrations of HEPES (100 mM, pH 7.0), ATP (4 mM), MgCl2 (10 mM), L-[U-^14C]threonine (50 μM, Moravek Inc.), and tRNA^Thr (5 μM). This mixture was incubated at room temperature for 10 min, with samples taken at 1, 2.5, 5, and 10 min. At each time point, a 7 μL aliquot was spotted onto a 5% trichloroacetic acid (TCA) presoaked 3 MM Whatman paper (Cytiva) squares (repeated in triplicate). After allowing the spots to dry, the Whatman paper was washed three times with 5% TCA, and once with 95% EtOH. The Whatman paper was dried and the counts on each square of paper analyzed using a Tri-Carb 2910 TR liquid scintillation counter using Hydrofluor Liquid Scintillation Fluid (National Diagnostics). To calculate IC50 values, fractional initial velocities (velocity of inhibited reaction/velocity in the absence of inhibitor) were plotted against the log of 1 concentration and then fitted to eqn (1), using GraphPad Prism.1 [drawing 1]

MRSA = experiment: Spot-on-lawn MIC bioassay; format: cell-based, Methicillin-resistant Staphylococcus aureus; conditions: spot-on-lawn; for MIC: Staphylococcus aureus, MRSA; for antibacterial activity (in words): Fig. S13
Method: as §2, §1

E. coli NR698 = experiment: Spot-on-lawn MIC bioassay; format: cell-based; conditions: Escherichia coli
Method: as §2

S. cerevisiae = experiment: Spot-on-lawn MIC bioassay; format: cell-based, S. cerevisiae NCYC 2939; conditions: Saccharomyces cerevisiae
Method: as §2

PfThrRS = PfThrRS (Pseudomonas fluorescens, UniProt C3JZN7); experiment: Aminoacylation assay; format: biochemical, P. fluorescens; conditions: for IC100: read-out: concentration of full inhibition
PfThrRS, sequence (C3JZN7 whole entry): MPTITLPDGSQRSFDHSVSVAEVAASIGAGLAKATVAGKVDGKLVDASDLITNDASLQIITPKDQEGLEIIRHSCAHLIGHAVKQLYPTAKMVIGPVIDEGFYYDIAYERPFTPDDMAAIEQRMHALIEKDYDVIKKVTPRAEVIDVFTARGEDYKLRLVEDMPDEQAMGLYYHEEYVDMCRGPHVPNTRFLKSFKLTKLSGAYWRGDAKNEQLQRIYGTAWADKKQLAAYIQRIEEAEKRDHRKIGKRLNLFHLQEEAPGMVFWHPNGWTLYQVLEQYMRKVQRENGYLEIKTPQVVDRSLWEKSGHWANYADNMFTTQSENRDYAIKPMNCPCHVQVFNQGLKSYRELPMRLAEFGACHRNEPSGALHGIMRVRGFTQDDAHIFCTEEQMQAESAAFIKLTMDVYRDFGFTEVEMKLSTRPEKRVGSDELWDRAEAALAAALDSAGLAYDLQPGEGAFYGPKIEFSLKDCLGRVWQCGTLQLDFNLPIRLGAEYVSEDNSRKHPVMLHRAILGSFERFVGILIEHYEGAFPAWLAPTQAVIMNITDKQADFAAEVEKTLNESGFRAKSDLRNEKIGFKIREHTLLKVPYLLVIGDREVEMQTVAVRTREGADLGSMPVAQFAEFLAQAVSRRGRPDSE
Method: as §3

B. subtilis = experiment: Spot-on-lawn MIC bioassay; format: cell-based, B. subtilis EC 1524; conditions: Bacillus subtilis
Method: as §2

[1] = Hydrolysis of the β-lactone in HEPES buffer monitored by HPLC; format: physicochemical; conditions: for effect of added Fe^3+ on hydrolysis (in words): Fe^3+ 1 mM, HEPES 100 mM, pH 6.0–8.0, 30 min; for hydrolysis of β-lactone (in words): pH 8.0, HEPES 100 mM, 30 min, no Fe^3+
Method: Hydrolysis of 1–4 was analysed on an Agilent 1290 system fitted with an Agilent LC/MSD MS spectrometer. A Kinetex XB-C18, 100 × 4.6 mm, 5 μM column (Phenomenex) was used with a gradient elution: ACN/0.1% (v/v) FA (H2O) gradient from 5/95 for 0–0.5 min, 5/95 to 98/2 0.5–12 min, 98/2 for 12–13 min, gradient to 5/95 13–13.5 min and 5/95 for 13.5–15 min. The flow rate was 0.6 mL min^−1 and the injection volume of each sample 5 μL. DAD signals were analysed at 270 nm, with a bandwidth of 4 nm. MS were recorded in positive mode using an atmospheric pressure ionisation electrospray (API-ES) ion source with a capillary voltage of 3000 V. The drying gas temperature was 350 °C with a flow rate of 12 L min^−1. The scan parameters were: mass range = 200–1500; fragmentor = 70; gain EMV = 1.0; threshold = 150; step-size = 0.10. Data were analysed with Agilent ChemStation software.
Five solutions of HEPES buffer (111 mM) were prepared at pH 6.0, 6.5, 7.0, 7.5 and 8.0 respectively. A further five solution of HEPES buffer (111 mM) with Fe(NO3)3.9H2O ([…]) were also prepared at pH 6.0, 6.5, 7.0, 7.5, 8.0 respectively. Stock solutions of 1–4 (10 mM) were prepared in DMSO. For each hydrolysis experiment, stock solution of 1–4 (10 μL) was added the HEPES buffer (90 μL) or the HEPES + Fe(NO3)3.9H2O buffer (90 μL), to give final concentrations of HEPES (100 mM), 1–4 (1 mM) and Fe^3+ (0 or 1 mM). The reaction mixtures were shaken using a bench top vortex and left to stand for 30 min, after which the samples were analysed by HPLC using the Analytical HPLC method. All stock solutions of 1–4 were tested at every pH, with and without Fe^3+ and all experiments were repeated in triplicate.

[2] = Figure S8 legend, read-out: Minimum inhibitory concentration
[3] = standard conditions, read-out: MIC
[4] = NR698, read-out: Minimum inhibitory concentration
[5] = Figure S10 legend, read-out: Minimum inhibitory concentration
[6] = Figure S12 legend, read-out: Minimum inhibitory concentration
[7] = Figure S9 legend, read-out: Minimum inhibitory concentration

CN[C@@H]1[C@@H](O[C@H]2O[C@H](CO)[C@@H](N)[C@H](O)[C@H]2O)OC2C[C@@H](N)[C@@H](O[C@H]3[C@H](O)[C@@H](O)[C@H](N)C[C@@H]3N)OC2[C@@H]1O (some centres unmarked) [Apramycin, apramycin, reference compound]
lowest concentration which gave an inhibition zone (S. aureus): 50 µg/mL
lowest concentration which gave an inhibition zone (E. coli 25922): 50 µg/mL

CC1(C)S[C@@H]2[C@H](NC(=O)C(C(=O)O)c3ccccc3)C(=O)N2[C@H]1C(=O)O (some centres unmarked) [Carbenicillin, carbenicillin, reference compound]
lowest concentration which gave an inhibition zone (S. aureus): 50 µg/mL
lowest concentration which gave an inhibition zone (E. coli 25922): 1000 µg/mL

O=C(N[C@H](CO)[C@H](O)c1ccc([N+](=O)[O-])cc1)C(Cl)Cl [Chloramphenicol, chloramphenicol, reference compound]
lowest concentration which gave an inhibition zone (S. aureus): 1000 µg/mL
lowest concentration which gave an inhibition zone (E. coli 25922): 1000 µg/mL

NC[C@H]1O[C@H](O[C@H]2[C@H](O)[C@@H](O[C@H]3O[C@H](CO)[C@@H](O)[C@H](N)[C@H]3O)[C@H](N)C[C@@H]2N)[C@H](O)[C@@H](O)[C@@H]1O [Kanamycin, kanamycin, reference compound]
lowest concentration which gave an inhibition zone (S. aureus): 50 µg/mL
lowest concentration which gave an inhibition zone (E. coli 25922): 50 µg/mL

O=C1CN(/N=C/c2ccc([N+](=O)[O-])o2)C(=O)N1 [Nitrofurantoin, nitrofurantoin, reference compound]
lowest concentration which gave an inhibition zone (S. aureus): 500 µg/mL
lowest concentration which gave an inhibition zone (E. coli 25922): 500 µg/mL

[H]/N=C(/N)N[C@H]1[C@H](O)[C@@H](O)[C@H](O[C@@H]2O[C@@H](C)[C@](O)(C=O)[C@H]2O[C@@H]2O[C@@H](CO)[C@H](O)[C@@H](O)[C@@H]2NC)[C@@H](N/C(N)=N\[H])[C@@H]1O [Streptomycin, streptomycin, reference compound]
lowest concentration which gave an inhibition zone (S. aureus): 50 µg/mL
lowest concentration which gave an inhibition zone (E. coli 25922): 50 µg/mL

O=C(N[C@@H]1C(=O)O[C@@H]1Cc1ccc([N+](=O)[O-])cc1)c1ccccc1O [compound 2, 2-HBA-obafluorin]
concentration at which complete inhibition was observed (EcThrRS): 10 000 nM
IC50 (EcThrRS; read-out: IC50): 3700 ± 700 nM
fold less potent than 1 (EcThrRS): approximately 100 fold
MIC (MRSA; [2]): 1000 µg/mL (≈ 2920 µM)
MIC (MRSA; [3]): > 1000 µg/mL
MIC (E. coli NR698; NR698): 1000 µg/mL (≈ 2920 µM)
MIC (E. coli NR698; [4]): > 1000 µg/mL
MIC (E. coli 25922; [5]): > 1000 µg/mL
MIC (E. coli 25922; [3]): > 1000 µg/mL
MIC (S. cerevisiae; [6]): > 1000 µg/mL
MIC (S. cerevisiae; [3]): > 1000 µg/mL
IC100 (PfThrRS; enzyme 10 nM): 10 µM
MIC (B. subtilis; [7]): 1000 µg/mL (≈ 2920 µM)
MIC (B. subtilis; [3]): 1000 µg/mL (≈ 2920 µM)
effect of added Fe^3+ on hydrolysis (in words) [1]: no effect
hydrolysis of β-lactone (in words) [1]: mainly hydrolysed

O=C(N[C@@H]1C(=O)O[C@@H]1Cc1ccc([N+](=O)[O-])cc1)c1cccc(O)c1 [compound 3, 3-HBA-obafluorin]
concentration at which complete inhibition was observed (EcThrRS): 5000 nM
IC50 (EcThrRS; read-out: IC50): 930 ± 80 nM
fold less potent than 1 (EcThrRS): ~30 fold
MIC (MRSA; [2]): 1000 µg/mL (≈ 2920 µM)
MIC (MRSA; [3]): 1000 µg/mL (≈ 2920 µM)
MIC (E. coli NR698; NR698): > 1000 µg/mL
MIC (E. coli NR698; [4]): > 1000 µg/mL
MIC (E. coli 25922; [5]): > 1000 µg/mL
MIC (E. coli 25922; [3]): > 1000 µg/mL
MIC (S. cerevisiae; [6]): > 1000 µg/mL
MIC (S. cerevisiae; [3]): > 1000 µg/mL
IC100 (PfThrRS; enzyme 10 nM): 5 µM
MIC (B. subtilis; [7]): 1000 µg/mL (≈ 2920 µM)
MIC (B. subtilis; [3]): 1000 µg/mL (≈ 2920 µM)
effect of added Fe^3+ on hydrolysis (in words) [1]: no effect
hydrolysis of β-lactone (in words) [1]: mainly hydrolysed

O=C(N[C@@H]1C(=O)O[C@@H]1Cc1ccc([N+](=O)[O-])cc1)c1ccccc1 [compound 4, BA-obafluorin]
IC50 (EcThrRS): No inhibition
inhibition of aminoacylation (in words) (EcThrRS; up to the highest concentration tested (0–25 μM)): no significant inhibition
MIC (MRSA; [2]): > 1000 µg/mL
MIC (MRSA; [3]): 1000 µg/mL (≈ 3060 µM)
MIC (E. coli NR698; NR698): > 1000 µg/mL
MIC (E. coli NR698; [4]): > 1000 µg/mL
MIC (E. coli 25922; [5]): > 1000 µg/mL
MIC (E. coli 25922; [3]): > 1000 µg/mL
MIC (S. cerevisiae; [6]): > 1000 µg/mL
MIC (S. cerevisiae; [3]): > 1000 µg/mL
IC50 (PfThrRS; enzyme 10 nM, 10 min preincubation with compound): not inhibited; also recorded: No inhibition
inhibition of aminoacylation (in words) (PfThrRS; up to 25000 nM): no significant inhibition
MIC (B. subtilis; [7]): > 1000 µg/mL
MIC (B. subtilis; [3]): > 1000 µg/mL
hydrolysis of β-lactone (in words) [1]: no hydrolysis; also recorded: stable to hydrolysis

O=C(N[C@H](C(=O)O)[C@H](O)Cc1ccc([N+](=O)[O-])cc1)c1cccc(O)c1O [compound 5, β-lactone hydrolysed obafluorin]
antibacterial activity (in words) (MRSA): inactive

COC(=O)[C@@H](NC(=O)c1cccc(O)c1O)[C@H](O)Cc1ccc([N+](=O)[O-])cc1 [compound 6, β-lactone methanolysed obafluorin]
antibacterial activity (in words) (MRSA): inactive

O=C(N[C@H](C(=O)O)[C@H](O)Cc1ccc([N+](=O)[O-])cc1)c1ccccc1 [compound 7, β-lactone hydrolysed BA-obafluorin]
antibacterial activity (in words) (MRSA): inactive
